The values that follow come from article PMC6199744, “Development of Chemical Proteomics for the Folateome and Analysis of the Kinetoplastid Folateome” (ACS Infectious Diseases, 2018).

Common to all, as to format: binding
Test [1] has as its target T1, HeLa cell extract proteins (Homo sapiens, UniProt P52907).
T1 construct: endogenous in cells; host or cells: HeLa cell extract

Test [2] deals with T2, HeLa cell extract proteins (Homo sapiens, UniProt P04075).
T2 construct: endogenous in cells; host or cells: HeLa cell extract
T2 sequence (P04075 1-364): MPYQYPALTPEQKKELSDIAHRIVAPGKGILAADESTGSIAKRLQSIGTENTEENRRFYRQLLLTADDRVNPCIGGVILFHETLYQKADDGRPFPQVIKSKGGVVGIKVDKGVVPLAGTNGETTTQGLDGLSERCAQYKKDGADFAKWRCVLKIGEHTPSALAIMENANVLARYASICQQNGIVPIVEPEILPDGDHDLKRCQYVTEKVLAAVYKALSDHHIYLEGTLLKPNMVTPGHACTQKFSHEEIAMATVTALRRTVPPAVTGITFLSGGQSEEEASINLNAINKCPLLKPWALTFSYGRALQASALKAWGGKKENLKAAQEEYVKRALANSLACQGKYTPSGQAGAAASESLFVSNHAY
The settings on record: HeLa.

The target in test [3] is T3, HeLa cell extract proteins (Homo sapiens, UniProt P60709).
T3 construct: endogenous in cells; host or cells: HeLa cell extract

Test [4] addresses T4, HeLa cell extract proteins (Homo sapiens, UniProt P07900).
T4 construct: endogenous in cells; host or cells: HeLa cell extract
The following applies: HeLa.

Test [5] has as its target T5, HeLa cell extract proteins (Homo sapiens, UniProt P11142).
T5 construct: endogenous in cells; host or cells: HeLa cell extract
The following applies: HeLa.

For test [6], the target named is T6, HeLa cell extract proteins (Homo sapiens, UniProt P36639).
T6 construct: endogenous in cells; host or cells: HeLa cell extract
The settings on record: HeLa.

The target in test [7] is T7, HeLa cell extract proteins (Homo sapiens, UniProt P30153).
T7 construct: endogenous in cells; host or cells: HeLa cell extract
The settings on record: HeLa; protein PPP2R1A.

The target in test [8] is T8, HeLa cell extract proteins (Homo sapiens, UniProt O43242).
T8 construct: endogenous in cells; host or cells: HeLa cell extract
The following applies: protein PSMD3; HeLa.

Test [9] addresses T9, HeLa cell extract proteins (Homo sapiens, UniProt Q96KA5).
T9 construct: endogenous in cells; host or cells: HeLa cell extract
T9 sequence (Q96KA5 1-538): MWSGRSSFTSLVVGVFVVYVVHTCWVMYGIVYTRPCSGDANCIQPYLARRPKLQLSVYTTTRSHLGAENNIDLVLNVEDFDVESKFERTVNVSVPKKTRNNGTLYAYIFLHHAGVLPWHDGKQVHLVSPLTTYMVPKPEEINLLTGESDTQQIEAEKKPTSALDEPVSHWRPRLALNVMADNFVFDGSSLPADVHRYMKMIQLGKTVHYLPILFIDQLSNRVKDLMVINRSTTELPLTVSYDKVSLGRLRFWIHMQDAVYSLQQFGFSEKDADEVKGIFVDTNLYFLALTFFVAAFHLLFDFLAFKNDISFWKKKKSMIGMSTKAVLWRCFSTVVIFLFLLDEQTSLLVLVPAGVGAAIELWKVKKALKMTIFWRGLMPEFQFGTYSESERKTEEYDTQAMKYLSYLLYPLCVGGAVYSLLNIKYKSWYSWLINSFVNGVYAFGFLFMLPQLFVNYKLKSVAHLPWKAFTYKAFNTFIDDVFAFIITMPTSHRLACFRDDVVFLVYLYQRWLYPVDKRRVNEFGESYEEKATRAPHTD
The settings on record: HeLa.

For test [10], the target named is T10, HeLa cell extract proteins (Homo sapiens, UniProt Q96CW5).
T10 construct: endogenous in cells; host or cells: HeLa cell extract
The settings on record: HeLa.

The target of test [11] is T11, HeLa cell extract proteins (Homo sapiens, UniProt P09497).
T11 construct: endogenous in cells; host or cells: HeLa cell extract
T11 sequence (P09497 1-229): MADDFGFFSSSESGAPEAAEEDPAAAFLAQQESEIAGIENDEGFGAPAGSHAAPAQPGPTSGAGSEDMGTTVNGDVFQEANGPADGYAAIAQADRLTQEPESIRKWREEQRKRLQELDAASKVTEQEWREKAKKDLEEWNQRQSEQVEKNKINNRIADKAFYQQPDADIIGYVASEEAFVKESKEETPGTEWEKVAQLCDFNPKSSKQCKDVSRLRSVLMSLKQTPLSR
The settings on record: HeLa.

The target of test [12] is T12, HeLa cell extract proteins (Homo sapiens, UniProt Q96EY8).
T12 construct: endogenous in cells; host or cells: HeLa cell extract
T12 sequence (Q96EY8 33-250): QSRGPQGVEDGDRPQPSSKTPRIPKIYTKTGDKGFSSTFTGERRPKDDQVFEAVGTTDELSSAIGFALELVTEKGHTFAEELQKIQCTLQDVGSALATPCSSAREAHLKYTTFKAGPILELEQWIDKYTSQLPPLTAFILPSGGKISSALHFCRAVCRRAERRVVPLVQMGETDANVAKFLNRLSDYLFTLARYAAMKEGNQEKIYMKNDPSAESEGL
The following applies: HeLa.

Test [13] addresses T13, HeLa cell extract proteins (Homo sapiens, UniProt P60228).
T13 construct: endogenous in cells; host or cells: HeLa cell extract

Test [14] deals with T14, HeLa cell extract proteins (Homo sapiens, UniProt Q9Y230).
T14 construct: endogenous in cells; host or cells: HeLa cell extract
The following applies: protein RUVBL2; HeLa.

Test [15] deals with T15, HeLa cell extract proteins (Homo sapiens, UniProt P14678).
T15 construct: endogenous in cells; host or cells: HeLa cell extract
The following applies: HeLa.

For test [16], the target named is T16, HeLa cell extract proteins (Homo sapiens, UniProt O95218).
T16 construct: endogenous in cells; host or cells: HeLa cell extract
T16 sequence (O95218 1-330): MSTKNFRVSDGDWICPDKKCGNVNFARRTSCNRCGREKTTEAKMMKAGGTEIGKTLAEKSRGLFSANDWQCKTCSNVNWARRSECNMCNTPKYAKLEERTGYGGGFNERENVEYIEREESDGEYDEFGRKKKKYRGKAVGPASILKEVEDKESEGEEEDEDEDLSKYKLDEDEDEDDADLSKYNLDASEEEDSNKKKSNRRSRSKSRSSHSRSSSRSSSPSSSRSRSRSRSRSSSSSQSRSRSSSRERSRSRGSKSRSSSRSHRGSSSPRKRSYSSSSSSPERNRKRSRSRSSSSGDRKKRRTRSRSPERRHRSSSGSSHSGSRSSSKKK

The mark [17] stands for this setting: protein ALDOA (45 KDA PROTEIN.).
The mark [18] stands for this setting: protein HSP90AA1 (HEAT SHOCK PROTEIN 90KDA ALPHA (CYTOSOLIC), CLASS A MEMBER 1 ISOFORM 1.).

Like-named read-outs stand apart in the source and are kept apart here.

T5 sequence (P11142 whole entry): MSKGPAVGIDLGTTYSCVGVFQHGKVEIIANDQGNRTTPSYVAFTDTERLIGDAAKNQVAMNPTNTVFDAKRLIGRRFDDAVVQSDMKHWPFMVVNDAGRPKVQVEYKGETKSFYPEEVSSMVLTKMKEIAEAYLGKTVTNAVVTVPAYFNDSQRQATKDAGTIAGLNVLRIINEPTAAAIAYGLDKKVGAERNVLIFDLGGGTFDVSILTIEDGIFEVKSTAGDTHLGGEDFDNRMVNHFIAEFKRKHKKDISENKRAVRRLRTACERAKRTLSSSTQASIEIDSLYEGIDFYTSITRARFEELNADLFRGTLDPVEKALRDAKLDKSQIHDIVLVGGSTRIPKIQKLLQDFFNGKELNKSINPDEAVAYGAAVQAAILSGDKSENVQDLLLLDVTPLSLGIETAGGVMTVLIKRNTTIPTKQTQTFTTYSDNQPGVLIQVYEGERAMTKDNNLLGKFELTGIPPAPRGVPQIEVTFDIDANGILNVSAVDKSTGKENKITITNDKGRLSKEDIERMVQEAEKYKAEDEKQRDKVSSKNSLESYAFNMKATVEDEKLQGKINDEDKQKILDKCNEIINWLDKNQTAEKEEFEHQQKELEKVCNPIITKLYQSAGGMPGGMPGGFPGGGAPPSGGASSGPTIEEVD
T14 sequence (Q9Y230 whole entry): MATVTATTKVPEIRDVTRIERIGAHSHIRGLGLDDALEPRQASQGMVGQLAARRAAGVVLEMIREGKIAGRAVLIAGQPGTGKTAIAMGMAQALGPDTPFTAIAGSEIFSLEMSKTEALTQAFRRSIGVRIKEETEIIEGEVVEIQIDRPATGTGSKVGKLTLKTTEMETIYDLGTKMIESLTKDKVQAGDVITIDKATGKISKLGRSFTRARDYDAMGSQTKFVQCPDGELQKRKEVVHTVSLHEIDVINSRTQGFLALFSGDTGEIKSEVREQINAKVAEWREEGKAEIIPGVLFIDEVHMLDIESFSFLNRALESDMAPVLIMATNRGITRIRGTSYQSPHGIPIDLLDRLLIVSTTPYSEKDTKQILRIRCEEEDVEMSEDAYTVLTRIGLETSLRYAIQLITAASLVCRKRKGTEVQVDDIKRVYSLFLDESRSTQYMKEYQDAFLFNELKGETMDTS
T10 sequence (Q96CW5 whole entry): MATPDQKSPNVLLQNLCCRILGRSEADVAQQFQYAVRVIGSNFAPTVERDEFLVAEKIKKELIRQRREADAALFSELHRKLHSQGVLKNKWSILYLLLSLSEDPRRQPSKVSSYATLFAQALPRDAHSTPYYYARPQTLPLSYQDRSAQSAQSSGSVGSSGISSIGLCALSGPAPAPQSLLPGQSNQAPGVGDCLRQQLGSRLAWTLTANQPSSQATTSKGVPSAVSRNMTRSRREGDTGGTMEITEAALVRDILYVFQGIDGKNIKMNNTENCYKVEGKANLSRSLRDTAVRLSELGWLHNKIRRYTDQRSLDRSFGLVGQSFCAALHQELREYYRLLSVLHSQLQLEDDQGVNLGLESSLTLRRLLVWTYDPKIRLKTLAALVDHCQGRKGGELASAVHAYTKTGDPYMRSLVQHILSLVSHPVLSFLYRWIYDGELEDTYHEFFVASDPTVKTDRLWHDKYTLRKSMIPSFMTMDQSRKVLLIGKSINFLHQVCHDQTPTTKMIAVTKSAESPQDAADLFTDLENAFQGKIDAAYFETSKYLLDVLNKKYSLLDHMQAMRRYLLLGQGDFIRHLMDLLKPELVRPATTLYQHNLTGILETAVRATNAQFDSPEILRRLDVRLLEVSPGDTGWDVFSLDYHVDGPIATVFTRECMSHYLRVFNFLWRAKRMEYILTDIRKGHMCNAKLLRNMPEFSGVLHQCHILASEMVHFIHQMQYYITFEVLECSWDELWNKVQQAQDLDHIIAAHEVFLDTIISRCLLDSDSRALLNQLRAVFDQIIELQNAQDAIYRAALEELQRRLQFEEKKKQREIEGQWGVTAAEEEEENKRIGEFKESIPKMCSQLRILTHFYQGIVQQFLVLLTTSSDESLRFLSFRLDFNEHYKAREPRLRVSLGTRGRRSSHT
T7 sequence (P30153 whole entry): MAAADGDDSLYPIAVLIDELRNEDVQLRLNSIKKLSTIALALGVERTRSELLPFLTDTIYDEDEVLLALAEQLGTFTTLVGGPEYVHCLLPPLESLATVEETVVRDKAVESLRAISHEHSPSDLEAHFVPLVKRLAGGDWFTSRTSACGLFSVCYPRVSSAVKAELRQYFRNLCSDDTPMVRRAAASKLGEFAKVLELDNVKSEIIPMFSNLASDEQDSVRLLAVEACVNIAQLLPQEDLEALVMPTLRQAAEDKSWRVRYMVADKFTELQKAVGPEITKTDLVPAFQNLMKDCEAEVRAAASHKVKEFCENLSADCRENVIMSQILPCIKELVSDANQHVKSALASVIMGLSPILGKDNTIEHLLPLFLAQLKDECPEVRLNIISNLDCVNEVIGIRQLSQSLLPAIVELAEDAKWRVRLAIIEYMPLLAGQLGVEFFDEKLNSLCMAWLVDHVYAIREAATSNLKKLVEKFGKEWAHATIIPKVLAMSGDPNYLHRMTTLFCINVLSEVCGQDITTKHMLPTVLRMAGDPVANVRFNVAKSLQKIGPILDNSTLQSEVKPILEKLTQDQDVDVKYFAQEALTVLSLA
T8 sequence (O43242 whole entry): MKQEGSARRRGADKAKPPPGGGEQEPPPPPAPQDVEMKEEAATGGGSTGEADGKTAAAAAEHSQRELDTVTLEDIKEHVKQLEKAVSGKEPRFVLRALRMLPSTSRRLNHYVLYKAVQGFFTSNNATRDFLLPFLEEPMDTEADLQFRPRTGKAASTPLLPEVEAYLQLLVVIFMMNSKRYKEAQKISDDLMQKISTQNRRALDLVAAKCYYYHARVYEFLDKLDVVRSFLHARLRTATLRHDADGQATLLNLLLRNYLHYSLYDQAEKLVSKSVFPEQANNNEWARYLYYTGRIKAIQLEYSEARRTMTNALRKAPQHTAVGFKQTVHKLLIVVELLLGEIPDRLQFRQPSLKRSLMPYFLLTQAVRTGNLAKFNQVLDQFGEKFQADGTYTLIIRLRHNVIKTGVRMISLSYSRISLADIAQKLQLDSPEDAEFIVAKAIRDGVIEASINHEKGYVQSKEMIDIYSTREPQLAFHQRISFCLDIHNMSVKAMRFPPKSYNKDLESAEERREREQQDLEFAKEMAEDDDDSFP
T13 sequence (P60228 whole entry): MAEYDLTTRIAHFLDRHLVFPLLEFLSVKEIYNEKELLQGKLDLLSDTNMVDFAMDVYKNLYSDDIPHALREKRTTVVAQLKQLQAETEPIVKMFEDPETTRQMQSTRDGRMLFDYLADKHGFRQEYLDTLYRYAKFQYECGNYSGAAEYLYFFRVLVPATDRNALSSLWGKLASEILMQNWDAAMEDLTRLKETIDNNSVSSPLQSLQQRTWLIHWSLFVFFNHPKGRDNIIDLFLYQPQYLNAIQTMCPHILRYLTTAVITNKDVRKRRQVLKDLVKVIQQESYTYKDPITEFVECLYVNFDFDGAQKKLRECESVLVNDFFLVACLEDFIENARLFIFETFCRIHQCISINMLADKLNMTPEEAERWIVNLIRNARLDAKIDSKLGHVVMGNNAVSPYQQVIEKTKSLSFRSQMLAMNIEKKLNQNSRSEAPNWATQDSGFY

As for `CCCCCCOc1cccc(Cc2cnc(N)nc2N)c1` [compound 2], the “fold changes relative to vehicle control” value in [1] (protein CAPZA1; HeLa) stood at 1.32; in test [2] (setting [17]) it was 2.49 fold; in test [3] (protein ACTB; HeLa), 1.5; in [4] (setting [18]), 2.39 fold; in test [5] (protein HSPA8), 1.11; in test [6] (captured protein NUDT1), 0.11. The “fold changes relative to vehicle control” value in test [7] was found to be 0.95; in test [8], 1.51; in [9] (captured protein CLPTM1L), 1.05; in test [10] (captured protein TUBGCP3) it was 1.05; in [11] (protein CLTB), 1.18; in test [12] (protein MMAB), 0.94. The “fold changes relative to vehicle control” value in test [13] (protein EIF3E; HeLa) worked out at 1.21; in [14], 1.34; in test [15] (protein SNRPB), 1.46; in [16] (HeLa; protein ZRANB2), 1.23.

Consider `NCCOCCOCC(=O)Nc1nc2ncc(CNc3ccc(C(=O)NC(CCC(=O)O)C(=O)O)cc3)nc2c(=O)[nH]1` (centres unmarked) [compound 6], for which the “fold changes relative to vehicle control” value was 1.11 in [1] (HeLa; protein CAPZA1); 1.34 in test [2] (protein ALDOA); 1.39 in test [3] (HeLa; protein ACTB); 1.32 in test [4] (protein HSP90AA1); 0.98 in test [5] (captured protein HSPA8); 1.16 in [6] (protein NUDT1). Besides, the “fold changes relative to vehicle control” value in [7] is recorded as 0.86; in test [8], 1.17; in [9] (protein CLPTM1L), 1.01; in [10] (protein TUBGCP3) it was 1; in test [11] (captured protein CLTB), 1.23; in test [12] (protein MMAB (COB)) it was 0.51. Moreover, the “fold changes relative to vehicle control” value in test [13] (HeLa; protein EIF3E) worked out at 1.11; in test [14] it was 1.06; in test [15] (captured protein SNRPB), 1.16; in test [16] (protein ZRANB2; HeLa), 0.95.

For `CCCCCCOc1ccc(Cc2cnc(N)nc2N)cc1` [compound 1], the “fold changes relative to vehicle control” value in [1] (protein CAPZA1; HeLa) was found to be 1.13; in test [2] (setting [17]) it was 1.38 fold; in test [3] (protein ACTB; HeLa), 1.25; in test [4] (setting [18]) it was 1.4 fold; in test [5] (protein HSPA8), 0.99; in [6] (captured protein NUDT1) it was 1.02. Further, the “fold changes relative to vehicle control” value in test [7] is listed as 0.95; in test [8], 1.21; in [9] (captured protein CLPTM1L), 0.84; in [10] (captured protein TUBGCP3), 0.94; in test [11] (protein CLTB), 0.82; in test [12] (protein MMAB), 0.95. The “fold changes relative to vehicle control” value in [13] (protein EIF3E; HeLa) is 1.18; in test [14] it was 1.03; in [15] (protein SNRPB), 1.17; in test [16] (HeLa; protein ZRANB2), 1.04.

Take `Nc1nc2c(c(=O)[nH]1)N(C=O)C(CNc1ccc(C(=O)N[C@@H](CCC(=O)O)C(=O)O)cc1)CN2` (some centres unmarked) [LEU, leucovorin]: the “fold changes relative to vehicle control” value in test [1] (HeLa; protein CAPZA1) amounted to 0.89; in test [2] (protein ALDOA) it was 0.98; in test [3] (HeLa; protein ACTB), 1.13; in test [4] (protein HSP90AA1), 1.06; in test [5] (captured protein HSPA8), 1.07; in test [6] (protein NUDT1), 1.19. For the same molecule, the “fold changes relative to vehicle control” value in [7] was 0.97; in test [8], 1.08; in test [9] (protein CLPTM1L), 0.77; in [10] (protein TUBGCP3), 0.87; in [11] (captured protein CLTB), 0.99; in test [12] (protein MMAB (COB)) it was 0.99. The “fold changes relative to vehicle control” value in [13] (HeLa; protein EIF3E) is reported as 1.15; in test [14], 0.85; in test [15] (captured protein SNRPB) it was 1.16; in test [16] (protein ZRANB2; HeLa), 0.82.

Regarding `NCCCNc1ccc(C(=O)NC(CCC(=O)O)C(=O)O)cc1` (centres unmarked) [compound 7], the “fold changes relative to vehicle control” value in [1] (HeLa; protein CAPZA1) is 1.09; in test [2] (protein ALDOA) it was 1.02; in test [3] (HeLa; protein ACTB) it was 1.04; in test [4] (protein HSP90AA1) it was 0.92; in test [5] (captured protein HSPA8) it was 0.99; in test [6] (protein NUDT1) it was 1.2. Also, the “fold changes relative to vehicle control” value in test [7] is 0.95; in [8], 1.02; in [9] (protein CLPTM1L), 0.9; in test [10] (protein TUBGCP3), 1.01; in test [11] (captured protein CLTB), 1.14; in [12] (protein MMAB (COB)), 0.94. Moreover, the “fold changes relative to vehicle control” value in test [13] (HeLa; protein EIF3E) worked out at 1.01; in [14] it was 0.95; in test [15] (captured protein SNRPB), 1.16; in [16] (protein ZRANB2; HeLa), 0.77.
